For data set [1], the system named is HSV-1. As to the kind of experiment: Virus inhibition, HSV-1 on Vero cells (PrestoBlue). Type of data set: cell-based, herpes simplex virus type 1 (MacIntyre strain). The note with it: at the non-toxic concentration of Table 1; MOI 0.1; compound and virus added simultaneously; parentheses = greater cell death than virus alone. On the procedure: (§1) Viruses and Quantification. Herpes simplex virus type 1 (HSV-1, MacIntyre strain, ATCC, VR-539) or herpes simplex virus type 2 (HSV-2, ATCC, VR-734) were used in these studies. Virus titer was determined by plaque assay. Briefly, following 2 hour-adsorption of various virus dilutions onto a Vero cell monolayer in a 24-well plate, the medium was removed and cells were overlaid with 1.5% carboxymethylcellulose (Sigma Chemical Company, St. Louis, Mo.) and incubated 48 hours at 37° C. with 5% CO2. After incubation, cells were fixed with methanol, stained with Giemsa (Sigma Chemical Company, St. Louis, Mo.) and plaques were counted. Each virus dilution was prepared in quadruplicate.
(§2) Cytotoxicity and Virus Inhibition. All ginsenosides, isomers, and protopanaxadiols were evaluated for toxic effects on Vero cells prior to anti-viral testing. Cells were seeded at 5000 cells/well in a black 96-well plate with clear bottom in a volume of 100 μL and allowed to attach for 24 hours. The P. ginseng compounds were prepared in DMSO at 100 μM and were taken through serial two-fold dilutions to determine the concentration when the rate of cell death was less than 10% compared to control, untreated cells. Each dilution was tested in three wells and all assays were repeated three times. Following a 48 hour-incubation at 37° C. in 5% CO2, 11 μL of PrestoBlue (Invitrogen, Carlsbad, Calif.) was added to each well and the plate was incubated for an additional 30 minutes. PrestoBlue determines cell viability by changing from blue to red as resazurin is reduced to resorufin by viable cells. Following the PrestoBlue incubation, fluorescence was determined by spectrophotometric reading using Soft Max Pro (Molecular Diagnostics, San Jose, Calif., USA).
(§3) For cytotoxicity testing, 4 μL of dilutions of the ginsenosides or protopanaxadiols were added to 396 μL of medium 199 and 100 μL of this mixture was added to each of three wells. For anti-viral testing, 4 μL of the non-toxic reagent and 4 μL of HSV-1 or HSV-2 diluted to an MOI of 0.1 were added to 392 μL of medium 199 and 100 μL of this mixture was added to each of three wells. Virus inhibition was determined by comparing the cell death of reagent-exposed cells with cell death of control cells only receiving virus. The 50% inhibitory concentration (IC50) was determined through a series of two-fold dilutions and calculation by linear regression analysis.

A further data set has as its system Vero cells. Kind of data set: Cytotoxicity on Vero cells (PrestoBlue). Type of data set: cell-based. The note with it: for Cytotoxicity (non-toxic concentration): concentration causing less than 10% cell death compared with controls, Vero cells, 48 hour incubation, tested from 100 μM in 2-fold dilutions. On the procedure:
Cells. Vero cells (American Type Culture Collection (ATCC), Manassas, VA, CCL-81) were maintained in medium 199 (Sigma Chemical Company, St. Louis, MO) that was supplemented with 8% fetal bovine serum (Invitrogen, Carlsbad, CA), 1.25 μg/mL fungizone (Invitrogen, Carlsbad, CA) and penicillin-streptomycin, 1000 U/mL and 1 mg/mL respectively (Sigma Chemical Company, St. Louis, MO). Cells were passed weekly using 0.1% trypsin (Sigma Chemical Company, St. Louis, MO) to detach the cells from the flasks. Cell quantification was done by trypan blue exclusion.
as §2, with “The P. ginseng compounds were prepared in DMSO at 100 μM and were taken through serial two-fold dilutions to determine the concentration when the rate of cell death was less than 10% compared to control, untreated cells.” left out
as §3

In another data set the test system is coxsackie B 3 virus. The note with it: 100 μg/mL; cited from earlier work.
The next data set has as its system human rhinovirus 3. The note with it: 100 μg/mL; cited from earlier work.
The test system of data set [2] is HSV-1. As to the kind of experiment: Plaque reduction of HSV-1 on Vero cell monolayer. Type of data set: cell-based, herpes simplex virus type 1 (MacIntyre strain). To be noted: valacyclovir 16 μM, 20(S)-Rg3 50 μM, about 50 PFU/well, 48 hours. On the procedure: as §1
The plaque assay procedure also was used to evaluate the percent plaque reduction; the only procedural change was that a constant virus concentration was used (50 plaque forming units (PFU)/well). Plaque reduction was measured by comparing the control (virus only), with valacyclovir (16 μM) with virus or 20(S)-Rg3 (50 μM) with virus. Sample wells were evaluated in quadruplicate. Following the 2 hour-virus adsorption, the methylcellulose-medium containing the same concentrations of valacyclovir or Rg3 was added to the appropriate wells. After 48 hours, plaques were fixed, stained and counted.

For data set [3], the system named is HSV-1. Kind of data set: Time studies of HSV-1 inhibition (PrestoBlue). It counts as cell-based, herpes simplex virus type 1. The note with it: Human alphaherpesvirus 1; HSV-1 incubated with compound 0 to 4 hours prior to addition to cells; valacyclovir 16 μM; read-out: percent inhibition of HSV-1. On the procedure: Time Studies. For virus inhibition studies described above, reagent 20(S)-Rg3 and virus were added to cells simultaneously. To evaluate the potential mode of action of Rg3, various combinations of valacyclovir, Rg3 and HSV-1 were tested at different time periods. The following combinations were evaluated at both one hour and four hours: • Virus applied to cells first (for one hour or four hours), followed by addition of valacyclovir, Rg3 or both valacyclovir and Rg3 to the cells; • Valacyclovir or Rg3 or both valacyclovir and Rg3 applied to cells first (for one or four hours), followed by virus; • Valacyclovir or Rg3 incubated together with virus first for one or four hours then added to cells.
All procedures described for evaluation of virus inhibition were followed in identical fashion as outlined for the PrestoBlue procedure except valacyclovir was used at a constant concentration of 16 μM and 20(S)-Rg3 at 50 μM.

The text below walks through data of US11980648B2, “Compositions including ginsenoside 20(S)-Rg3 and methods of using ginsenoside 20(S)-Rg3 to inhibit alpha herpesvirus” (MIDDLE TENNESSEE STATE UNIVERSITY, priority 2020, dated 2024).

Values joined by “and” are separate entries in the source; they are usually repeats but may differ in a detail not shown here. Equal values may be shown once.

Take `CC(C)=CCC[C@@](C)(O)C1CC[C@]2(C)C1[C@H](O)CC1[C@@]3(C)CC[C@H](O[C@@H]4OC(CO)[C@@H](O)[C@@H](O)C4O[C@@H]4OC(CO)[C@@H](O)[C@@H](O)C4O)C(C)(C)C3CC[C@]12C` (stereo partly drawn) [20(R)-Rg3, 20(R)-ginsenoside-Rg3]: in the data set on HSV-1 [1], the “Percent Inhibition of HSV-1” value was determined as 22.7%. Turning to `CC(C)=CCC[C@@](C)(O)[C@H]1CC[C@]2(C)[C@@H]1[C@H](O)C[C@@H]1[C@@]3(C)CC[C@H](O)C(C)(C)[C@@H]3CC[C@]12C` [20(R)-protopanaxadiol, reference compound], in the data set with Vero cells, the “Cytotoxicity (non-toxic concentration)” value came out at 12.5 µM. For the same compound, the “Percent Inhibition of HSV-1” value in the data set on HSV-1 [1] was 14.4%. Turning to `CC(C)=CCC[C@](C)(O)[C@H]1CC[C@]2(C)[C@@H]1[C@H](O)C[C@@H]1[C@@]3(C)CC[C@H](O)C(C)(C)[C@@H]3[C@@H](O[C@@H]3O[C@H](CO)[C@@H](O)[C@H](O)[C@H]3O[C@@H]3O[C@@H](C)[C@H](O)[C@@H](O)[C@H]3O)C[C@]12C` [Rg2], the “effect on coxsackie B 3 virus” value in the data set on coxsackie B 3 virus is on record as “inhibitory effects”. Besides, the “effect on human rhinovirus 3” value in the data set with human rhinovirus 3 was “inhibitory effects”.

As to `CC(C)=CCC[C@](C)(O[C@@H]1O[C@H](CO)[C@@H](O)[C@H](O)[C@H]1O)[C@H]1CC[C@]2(C)[C@@H]1[C@H](O)C[C@@H]1[C@@]3(C)CC[C@H](O)C(C)(C)[C@@H]3[C@@H](O[C@@H]3O[C@H](CO)[C@@H](O)[C@H](O)[C@H]3O)C[C@]12C` [Rg1], the “Percent Inhibition of HSV-1” value in the data set on HSV-1 [1] was determined as 13.2%. As to `CC(C)=CCC[C@](C)(O[C@@H]1O[C@H](CO[C@@H]2OC[C@H](O)[C@H](O)[C@H]2O)[C@@H](O)[C@H](O)[C@H]1O)[C@H]1CC[C@]2(C)[C@@H]1[C@H](O)C[C@@H]1[C@@]3(C)CC[C@H](O[C@@H]4O[C@H](CO)[C@@H](O)[C@H](O)[C@H]4O[C@@H]4O[C@H](CO)[C@@H](O)[C@H](O)[C@H]4O)C(C)(C)[C@@H]3CC[C@]12C` [Rb2], the “Percent Inhibition of HSV-1” value in the data set with HSV-1 [1] is recorded as 26.4%. Still for that read-out and setting: for 20(S)-Rh2 the value was 46.2%; for `CC(C)=CCC[C@](C)(O[C@@H]1O[C@H](CO[C@@H]2O[C@H](CO)[C@@H](O)[C@H](O)[C@H]2O)[C@@H](O)[C@H](O)[C@H]1O)[C@H]1CC[C@]2(C)[C@@H]1[C@H](O)C[C@@H]1[C@@]3(C)CC[C@H](O[C@@H]4O[C@H](CO)[C@@H](O)[C@H](O)[C@H]4O[C@@H]4O[C@H](CO)[C@@H](O)[C@H](O)[C@H]4O)C(C)(C)[C@@H]3CC[C@]12C` [Rb1], 23% and 23.3%. For `CC(C)=CCC[C@](C)(O)[C@H]1CC[C@]2(C)[C@@H]1[C@H](O)C[C@@H]1[C@@]3(C)CC[C@H](O)C(C)(C)[C@@H]3CC[C@]12C` [20(S)-protopanaxadiol, reference compound], the toxicity entry in the data set with Vero cells (25 μM) is on record as “non-toxic”. In addition, in the data set on Vero cells, the “Cytotoxicity (non-toxic concentration)” value came out at 12.5 µM. Consider `CC(C)=CCC[C@](C)(O[C@@H]1O[C@H](CO[C@@H]2OC[C@@H](O)[C@H](O)[C@H]2O)[C@@H](O)[C@H](O)[C@H]1O)[C@H]1CC[C@]2(C)[C@@H]1[C@H](O)C[C@@H]1[C@@]3(C)CC[C@H](O[C@@H]4O[C@H](CO)[C@@H](O)[C@H](O)[C@H]4O[C@@H]4O[C@H](CO)[C@@H](O)[C@H](O)[C@H]4O)C(C)(C)[C@@H]3CC[C@]12C` [Rb3], for which the “Percent Inhibition of HSV-1” value in the data set with HSV-1 [1] was determined as 30.9%. In the data set with Vero cells (African green monkey, 48 h, 16 μM), `CC(C)[C@H](N)C(=O)OCCOCn1cnc2c(=O)[nH]c(N)nc21` [Valacyclovir, reference compound] showed a Percent Cell Death of 1.2±0.4%. Further, in the data set on HSV-1 [2], the “Percent Reduction of plaques compared to the control” value is on record as 85.7%. Besides, the “Number of Plaques” value in the data set on HSV-1 [2] (± standard error) stood at 8.1 ± 1.1. Besides, the inhibition (commonly how much of the control response was suppressed) at 16 µM with HSV-1 [3] is 52.3 to 54.7%.
